In PubChem BioAssay AID248 (DTP/NCI, 2004):
Values joined by “and” are separate entries in the source; they are usually repeats but may differ in a detail not shown here. Equal entries are not always repeated. Inconclusive results and toxic doses are left out.

System: L1210 leukemia ip in BDF1 mice, survival T/C
Test: NCI In Vivo Anticancer Drug Screen. Data for tumor model L1210 Leukemia (intraperitoneal) in B6D2F1 (BDF1) mice
Conditions: endpoint: mean survival time, higher = longer survival
Procedure, shortened: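 In this screen, tumor-bearing mice given compound are compared to those given vehicle, and their survival values are reported as a treated-to-control quotient.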

[1] = dose: 100.0 mg/kg/injection, schedule: Q01DX009 (ip), vehicle: saline with Tween-80
[2] = dose: 100.0 mg/kg/injection, schedule: Q04DX003 (ip), vehicle: saline with Tween-80
[3] = dose: 200.0 mg/kg/injection, schedule: Q01DX009 (ip), vehicle: saline with Tween-80
[4] = dose: 200.0 mg/kg/injection, schedule: Q04DX003 (ip), vehicle: saline with Tween-80
[5] = dose: 400.0 mg/kg/injection, schedule: Q01DX009 (ip), vehicle: saline with Tween-80
[6] = dose: 400.0 mg/kg/injection, schedule: Q04DX003 (ip), vehicle: saline with Tween-80
[7] = dose: 100.0 mg/kg/injection, schedule: Q04DX002 (ip), vehicle: saline
[8] = dose: 200.0 mg/kg/injection, schedule: Q04DX002 (ip), vehicle: saline
[9] = dose: 400.0 mg/kg/injection, schedule: Q04DX002 (ip), vehicle: saline
[10] = dose: 100.0 mg/kg/injection, schedule: Q04DX003 (ip), vehicle: Klucel (hydroxypropylcellulose) (HPC)
[11] = dose: 200.0 mg/kg/injection, schedule: Q04DX003 (ip), vehicle: Klucel (hydroxypropylcellulose) (HPC)
[12] = dose: 100.0 mg/kg/injection, schedule: Q01DX001 (ip), vehicle: carboxymethylcellulose (CMC)
[13] = dose: 200.0 mg/kg/injection, schedule: Q01DX001 (ip), vehicle: carboxymethylcellulose (CMC)
[14] = dose: 400.0 mg/kg/injection, schedule: Q01DX001 (ip), vehicle: carboxymethylcellulose (CMC)
[15] = dose: 100.0 mg/kg/injection, schedule: Q04DX003 (ip), vehicle: saline
[16] = dose: 200.0 mg/kg/injection, schedule: Q04DX003 (ip), vehicle: saline
[17] = dose: 400.0 mg/kg/injection, schedule: Q04DX003 (ip), vehicle: saline
[18] = dose: 100.0 mg/kg/injection, schedule: Q01DX009 (ip), vehicle: Klucel (hydroxypropylcellulose) (HPC)
[19] = dose: 200.0 mg/kg/injection, schedule: Q01DX009 (ip), vehicle: Klucel (hydroxypropylcellulose) (HPC)
[20] = dose: 100.0 mg/kg/injection, schedule: Q01DX001 (ip), vehicle: saline
[21] = dose: 200.0 mg/kg/injection, schedule: Q01DX001 (ip), vehicle: saline
[22] = dose: 400.0 mg/kg/injection, schedule: Q01DX009 (ip), vehicle: Klucel (hydroxypropylcellulose) (HPC)

CCOC12c3c4cccc3C(=O)c3cccc(c31)C(=O)c1cccc(c12)C4=O
T/C [1]: 103 % of control | T/C [2]: 105 % of control | T/C [3]: 111 % of control | T/C [4]: 93 % of control | T/C [5]: 109 % of control | T/C [6]: 96 % of control

COc1ccc(CCN2C(=O)c3cccc4c(Br)ccc(c34)C2=O)cc1
T/C [7]: 93 % of control | T/C [8]: 93 % of control | T/C [9]: 97 % of control

S=C([S-])N1CCOCC1.S=C([S-])N1CCOCC1.[Zn]
T/C (dose: 4.68 mg/kg/injection, schedule: Q01DX009 (ip), vehicle: saline): 90 % of control | T/C (dose: 9.37 mg/kg/injection, schedule: Q01DX009 (ip), vehicle: saline): 86 % of control | T/C (dose: 18.75 mg/kg/injection, schedule: Q01DX009 (ip), vehicle: saline): 91 % of control | T/C (dose: 18.75 mg/kg/injection, schedule: Q04DX003 (ip), vehicle: saline): 100 % of control | T/C (dose: 37.5 mg/kg/injection, schedule: Q04DX003 (ip), vehicle: saline): 100 % of control | T/C (dose: 75.0 mg/kg/injection, schedule: Q01DX001 (ip), vehicle: saline): 90 % of control

Cc1ccc(S(=O)(=O)NN=C2CCC(C(C)(C)C)CC2)cc1 (stereo unspecified)
T/C [1]: 88 % of control | T/C (dose: 100.0 mg/kg/injection, schedule: Q04DX003 (ip), vehicle: other): 91 % of control | T/C [3]: 88 % of control | T/C (dose: 200.0 mg/kg/injection, schedule: Q04DX003 (ip), vehicle: other): 89 % of control | T/C [5]: 91 % of control | T/C (dose: 400.0 mg/kg/injection, schedule: Q04DX003 (ip), vehicle: other): 96 % of control

COc1ccc(C(=O)c2cccs2)cc1
T/C (dose: 50.0 mg/kg/injection, schedule: Q01DX009 (ip), vehicle: saline sonified): 101 % of control | T/C (dose: 100.0 mg/kg/injection, schedule: Q01DX009 (ip), vehicle: saline sonified): 104 % of control | T/C [10]: 97 % of control | T/C (dose: 200.0 mg/kg/injection, schedule: Q01DX009 (ip), vehicle: saline sonified): 102 % of control | T/C [11]: 94 % of control

CCNC(=O)Nc1ccc(C)cc1
T/C [12]: 105 % of control | T/C [13]: 97 % of control | T/C [14]: 103 % of control

COc1cc([N+](=O)[O-])c(O)cc1O
T/C [15]: 101 % of control | T/C [16]: 100 % of control | T/C [17]: 96 % of control

O=[N+]([O-])c1ccc(/C=N/c2oc(-c3ccc([N+](=O)[O-])cc3)nc2Sc2ccccc2)cc1
T/C (dose: 25.0 mg/kg/injection, schedule: Q04DX002 (ip), vehicle: Klucel (hydroxypropylcellulose) (HPC)): 106 % of control | T/C (dose: 200.0 mg/kg/injection, schedule: Q04DX002 (ip), vehicle: Klucel (hydroxypropylcellulose) (HPC)): 96 % of control and 97 % of control and 92 % of control | T/C (dose: 400.0 mg/kg/injection, schedule: Q04DX002 (ip), vehicle: Klucel (hydroxypropylcellulose) (HPC)): 96 % of control

Nc1nc(=S)[nH]c(C(=O)O)c1Oc1ccccc1
T/C (dose: 50.0 mg/kg/injection, schedule: Q01DX009 (ip), vehicle: Klucel (hydroxypropylcellulose) (HPC)): 87 % of control | T/C (dose: 50.0 mg/kg/injection, schedule: Q04DX003 (ip), vehicle: Klucel (hydroxypropylcellulose) (HPC)): 86 % of control | T/C (dose: 100.0 mg/kg/injection, schedule: Q01DX001 (ip), vehicle: Klucel (hydroxypropylcellulose) (HPC)): 92 % of control | T/C [18]: 102 % of control | T/C [10]: 89 % of control | T/C (dose: 200.0 mg/kg/injection, schedule: Q01DX001 (ip), vehicle: Klucel (hydroxypropylcellulose) (HPC)): 94 % of control | T/C [19]: 95 % of control | T/C [11]: 87 % of control

O=C(NC(C(=O)SC1=NC=NC2=NC=NC21)C(SC1=NC=NC2=NC=NC21)c1cccnc1)c1ccccc1 (stereo unspecified)
T/C (dose: 37.5 mg/kg/injection, schedule: Q01DX Z (ip), vehicle: saline): 153 % of control

COc1ccc(CC(C)N)cc1OC (stereo unspecified)
T/C [7]: 105 % of control | T/C [8]: 102 % of control

CN(C)CCSC(CO)c1ccccc1 (stereo unspecified)
T/C [12]: 96 % of control | T/C [13]: 89 % of control | T/C [14]: 94 % of control

O=C1NC(=O)C(Cl)(c2ccccc2)C(=O)N1
T/C (dose: 25.0 mg/kg/injection, schedule: Q04DX003 (ip), vehicle: saline): 99 % of control | T/C (dose: 50.0 mg/kg/injection, schedule: Q04DX003 (ip), vehicle: saline): 87 % of control | T/C [15]: 96 % of control

CC(=O)c1cccc(OC(=O)c2ccccc2)c1
T/C (dose: 50.0 mg/kg/injection, schedule: Q01DX001 (ip), vehicle: saline): 112 % of control | T/C [20]: 106 % of control | T/C [21]: 104 % of control | T/C (dose: 400.0 mg/kg/injection, schedule: Q01DX001 (ip), vehicle: saline): 104 % of control

Sc1ccc2ccccc2c1
T/C [18]: 94 % of control | T/C [15]: 91 % of control | T/C [19]: 121 % of control | T/C [16]: 88 % of control | T/C [22]: 110 % of control | T/C [17]: 86 % of control

CCCCC(=O)NCC(=O)N1CCC(C(=O)NCCCCC(=O)OC)C1 (stereo unspecified)
T/C [7]: 96 % of control | T/C [8]: 115 % of control | T/C [9]: 104 % of control

Cc1cnc(C(N)=O)c(=O)[nH]1
T/C (dose: 100.0 mg/kg/injection, schedule: Q01DX009 (ip), vehicle: saline): 96 % of control | T/C [15]: 100 % of control | T/C (dose: 200.0 mg/kg/injection, schedule: Q01DX009 (ip), vehicle: saline): 96 % of control | T/C [16]: 100 % of control | T/C (dose: 400.0 mg/kg/injection, schedule: Q01DX009 (ip), vehicle: saline): 98 % of control | T/C [17]: 97 % of control

CC(C)C(Br)C(Br)c1ccccc1 (stereo unspecified)
T/C (dose: 50.0 mg/kg/injection, schedule: Q01DX009 (ip), vehicle: saline with Tween-80): 96 % of control | T/C [1]: 102 % of control | T/C [3]: 96 % of control

CN(C)c1ccc(NC(=O)Nc2cccc(Cl)c2)cc1
T/C [1]: 91 % of control | T/C [2]: 94 % of control | T/C [3]: 94 % of control | T/C [4]: 100 % of control | T/C [5]: 92 % of control | T/C [6]: 92 % of control

CCCCOP(=O)(NC12CC3CC(CC(C3)C1)C2)OCCCC
T/C [18]: 97 % of control | T/C [10]: 100 % of control | T/C [19]: 97 % of control | T/C [11]: 92 % of control | T/C [22]: 100 % of control | T/C (dose: 400.0 mg/kg/injection, schedule: Q04DX003 (ip), vehicle: Klucel (hydroxypropylcellulose) (HPC)): 96 % of control

CCCCSC1CCCC1
T/C (dose: 50.0 mg/kg/injection, schedule: Q01DX009 (ip), vehicle: acetone): 98 % of control | T/C [20]: 89 % of control | T/C (dose: 100.0 mg/kg/injection, schedule: Q01DX009 (ip), vehicle: acetone): 110 % of control | T/C [21]: 92 % of control

CN(C)C(=S)Oc1ccc(OC(=S)N(C)C)cc1
T/C [2]: 100 % of control | T/C [4]: 95 % of control | T/C [6]: 100 % of control

CCOC(=O)NCC[N+](C)(C)C
T/C (dose: 6.25 mg/kg/injection, schedule: Q01DX009 (ip), vehicle: saline): 94 % of control | T/C (dose: 12.5 mg/kg/injection, schedule: Q01DX009 (ip), vehicle: saline): 100 % of control | T/C (dose: 25.0 mg/kg/injection, schedule: Q01DX009 (ip), vehicle: saline): 102 % of control

C/C(CC(=O)O)=C(\C)C(=O)O
T/C (dose: 100.0 mg/kg/injection, schedule: Q01DX009 (ip), vehicle: water): 95 % of control | T/C (dose: 100.0 mg/kg/injection, schedule: Q04DX003 (ip), vehicle: water): 96 % of control | T/C (dose: 200.0 mg/kg/injection, schedule: Q01DX009 (ip), vehicle: water): 91 % of control | T/C (dose: 200.0 mg/kg/injection, schedule: Q04DX003 (ip), vehicle: water): 102 % of control | T/C (dose: 400.0 mg/kg/injection, schedule: Q04DX003 (ip), vehicle: water): 104 % of control
